{
  "source": "ChEMBL document CHEMBL1127336",
  "about": "“P1 aspartate-based peptide alpha-((2,6-dichlorobenzoyl)oxy)methyl ketones as potent time-dependent inhibitors of interleukin-1 beta-converting enzyme” (J Med Chem, 1994)",
  "key": {"Cathepsin B (Bos taurus)": {"target": "Cathepsin B (Bos taurus) (UniProt P07688)", "assay": "Compound was evaluated for the ability to inhibit cathepsin B purified from bovine spleen"}, "[1]": {"assay": "Selectivity (ICE:cathepsin) of the compound; 700:1"}, "[2]": {"assay": "Selectivity (ICE:cathepsin) of the compound; 108:1"}, "Caspase-1 (Homo sapiens) [3]": {"target": "T1, Caspase-1 (Homo sapiens) (UniProt P29466)", "T1 sequence (whole entry)": "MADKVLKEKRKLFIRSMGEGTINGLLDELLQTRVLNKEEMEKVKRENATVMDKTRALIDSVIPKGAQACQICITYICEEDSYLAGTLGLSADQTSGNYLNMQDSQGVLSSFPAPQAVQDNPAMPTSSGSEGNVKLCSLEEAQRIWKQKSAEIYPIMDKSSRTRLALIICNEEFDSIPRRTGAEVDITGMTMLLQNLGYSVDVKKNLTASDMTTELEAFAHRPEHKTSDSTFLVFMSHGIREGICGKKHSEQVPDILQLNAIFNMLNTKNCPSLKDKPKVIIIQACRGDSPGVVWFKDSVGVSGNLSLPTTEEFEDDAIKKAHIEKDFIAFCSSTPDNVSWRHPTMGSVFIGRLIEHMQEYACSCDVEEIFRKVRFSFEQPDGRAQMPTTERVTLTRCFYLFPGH", "assay": "Compound was evaluated for the ability to inhibit Interleukin-1-beta-converting enzyme (ICE) purified from THP-1 cells"}, "Caspase-1 (Homo sapiens) [4]": {"target": "T1, Caspase-1 (Homo sapiens)", "assay": "Compound was evaluated for the ability to inhibit Interleukin-1-beta-converting enzyme (ICE) purified from THP-1 cells; […]"}},
  "data": [
    {"smiles": "O=C(O)C[C@H](NC(=O)OCc1ccccc1)C(=O)COC(=O)c1c(Cl)cccc1Cl", "values": [
      {"measurement": "k obs / 1", "setting": "Cathepsin B (Bos taurus)", "result": "< 10", "unit": "M⁻¹ s⁻¹"},
      {"measurement": "Selectivity", "setting": "[1]", "result": "> 700"}
    ]},
    {"smiles": "CC(C)[C@H](NC(=O)OCc1ccccc1)C(=O)N[C@@H](C)C(=O)N[C@@H](CC(=O)O)C(=O)COC(=O)c1c(Cl)cccc1Cl", "values": [
      {"measurement": "k obs / 1", "setting": "Cathepsin B (Bos taurus)", "result": 2250, "unit": "M⁻¹ s⁻¹"}
    ]},
    {"smiles": "CC(C)C(NC(=O)OCc1ccccc1)C(=O)N[C@@H](CC(=O)O)C(=O)COC(=O)c1c(Cl)cccc1Cl", "note": "(some centres not stated)", "values": [
      {"measurement": "k obs / 1", "setting": "Cathepsin B (Bos taurus)", "result": 380, "unit": "M⁻¹ s⁻¹"},
      {"measurement": "Selectivity", "setting": "[2]", "result": 108},
      {"measurement": "k obs / 1", "setting": "Caspase-1 (Homo sapiens) [3]", "result": 41000, "unit": "M⁻¹ s⁻¹"}
    ]},
    {"smiles": "O=C(O)CC[C@H](NC(=O)OCc1ccccc1)C(=O)COC(=O)c1c(Cl)cccc1Cl", "values": [
      {"measurement": "k obs / 1", "setting": "Caspase-1 (Homo sapiens) [4]", "result": "No inhibition"}
    ]}
  ]
}
